Experimental data: the supplement of paper PMC11451515

Tests used:
Settings in all cases: 48 h
[1] = test system: P12-Ichikawa; test: cell viability relative to DMSO control; higher = less cytotoxic
How it was run: (§1)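 NOMO1 or SEM (500 cells/well) or P12-Ichikawa (1000 cells/well) leukemia cells were adapted for at least four passages in each medium. They were seeded in 1536-well plates (5 μl) and pin-dosed with library compounds in DMSO over an 11-point threefold series, 47 μM to 0.79 nM. CellTiter-Glo One luminescence was read after 48 h at 37°C. Viability is the per-plate percentage relative to DMSO wells, with cell-free wells as background.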

[2] = test system: SEM cells; test: as above
How it was run: as §1

[3] = test system: NOMO1; test: AUC of viability dose-response curve (% viability x log10 dose units); higher = less sensitive
How it was run: (§2)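 In 1536-well plates, leukemia cells adapted to each medium (500 or 1000 cells/well) were exposed for 48 h at 37°C to library compounds in DMSO across 11 threefold doses, 47 μM down to 0.79 nM. Viability was read by CellTiter-Glo One luminescence and normalised per plate to DMSO and cell-free wells. A four-parameter log-logistic fit over log10 doses was integrated by trapezoidal rule. This yielded the area under the curve, with over-full-viability curves scaled and quality-control failures dropped.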

[4] = test system: P12-Ichikawa; test: as above
How it was run: as §2

[5] = test system: SEM cells; test: as above
How it was run: as §2

[6] = test system: NOMO1; test: cell viability relative to DMSO control; higher = less cytotoxic
How it was run: as §1

CNC(=O)c1ccc(Nc2ncc(C(F)(F)F)c(NCc3nccnc3N(C)[S+](C)(=O)[O-])n2)cc1
cell viability [%], HPLM + 10% dialyzed FBS
Settings | [1] | [2]
0.000781 µM | 120 | 115
0.00234 µM | 127 | 105
0.00702 µM | 117 | 124
0.0211 µM | 118 | 127
0.0632 µM | 124 | 125
0.19 µM | 114 | 113
0.569 µM | 122 | 99.8
1.71 µM | 125 | 63.2
5.12 µM | 109 | 23.5
15.4 µM | 89.4 | 16.7
46.1 µM | 102 | 20.9

AUC of viability dose-response curve
Settings | [3] | [4] | [5]
HPLM + 10% dialyzed FBS | 446 | 457 | 348
RPMI 5 mM glucose + 10% FBS | 412 | 447 | 317
RPMI 5 mM glucose + 10% dialyzed FBS | 443 | 438 | 314

O=c1cc(O)c(Cl)c[nH]1
AUC of viability dose-response curve
Settings | [3] | [4] | [5]
HPLM + 10% dialyzed FBS | 378 | 391 | 455
RPMI 5 mM glucose + 10% FBS | 396 | 395 | 416
RPMI 5 mM glucose + 10% dialyzed FBS | 394 | 417 | 453

CN1C(=O)C(Cc2c[nH]c3ccccc23)NC1=S (centres undefined)
AUC of viability dose-response curve
Settings | [3] | [4] | [5]
HPLM + 10% dialyzed FBS | 467 | 458 | 437
RPMI 5 mM glucose + 10% FBS | 448 | 450 | 405
RPMI 5 mM glucose + 10% dialyzed FBS | 451 | 461 | 422

O=C(NOC[C@H](O)CO)c1ccc(F)c(F)c1Nc1ccc(I)cc1F
AUC of viability dose-response curve
Settings | [3] | [4] | [5]
HPLM + 10% dialyzed FBS | 261 | 434 | 354
RPMI 5 mM glucose + 10% FBS | 274 | 384 | 362
RPMI 5 mM glucose + 10% dialyzed FBS | 260 | 445 | 347

CN1[C@@H]2CCC[C@H]1C[C@@H](NC(=O)c1nn(C)c3ccccc13)C2.Cl
[2], HPLM + 10% dialyzed FBS
Settings | cell viability [%]
0.000781 µM | 112
0.00234 µM | 110
0.00702 µM | 126
0.0211 µM | 115
0.0632 µM | 126
0.19 µM | 123
0.569 µM | 124
1.71 µM | 125
5.12 µM | 133
15.4 µM | 119
46.1 µM | 115

AUC of viability dose-response curve
Settings | [3] | [4] | [5]
HPLM + 10% dialyzed FBS | 468 | 463 | 468
RPMI 5 mM glucose + 10% FBS | 466 | 444 | 434
RPMI 5 mM glucose + 10% dialyzed FBS | 465 | 465 | 457

NC(=O)c1cccc(-c2cccc(OC(=O)NC3CCCCC3)c2)c1
cell viability [%], [2]
Settings | HPLM + 10% dialyzed FBS | RPMI 5 mM glucose + 10% FBS
0.000781 µM | 110 | 116
0.00234 µM | 125 | 119
0.00702 µM | 128 | 120
0.0211 µM | 133 | 120
0.0632 µM | 124 | 119
0.19 µM | 38.4 | 33
0.569 µM | 128 | 110
1.71 µM | 96.5 | 78.1
5.12 µM | 94.7 | 62.2
15.4 µM | 104 | 78
46.1 µM | 96.9 | 71.5

AUC of viability dose-response curve
Settings | [3] | [4] | [5]
HPLM + 10% dialyzed FBS | 461 | 413 | 421
RPMI 5 mM glucose + 10% FBS | 473 | 402 | 357
RPMI 5 mM glucose + 10% dialyzed FBS | 472 | 380 | 376

COc1cc2nccc(Oc3ccc(NC(=O)C4(C(=O)Nc5ccc(F)cc5)CC4)cc3)c2cc1OC
cell viability [%]
Settings | [1] | [2] | [6]
HPLM + 10% dialyzed FBS, 0.000781 µM | 114 | 87.6 | 113
HPLM + 10% dialyzed FBS, 0.00234 µM | 91.5 | 90.6 | 114
HPLM + 10% dialyzed FBS, 0.00702 µM | 122 | 71.2 | 112
HPLM + 10% dialyzed FBS, 0.0211 µM | 111 | 52.1 | 116
HPLM + 10% dialyzed FBS, 0.0632 µM | 115 | 53.5 | 94.2
HPLM + 10% dialyzed FBS, 0.19 µM | 111 | 48.7 | 101
HPLM + 10% dialyzed FBS, 0.569 µM | 118 | 52.9 | 116
HPLM + 10% dialyzed FBS, 1.71 µM | 113 | 48.3 | 104
HPLM + 10% dialyzed FBS, 5.12 µM | 96.3 | 47.1 | 93.7
HPLM + 10% dialyzed FBS, 15.4 µM | 71.7 | 30.4 | 69.8
HPLM + 10% dialyzed FBS, 46.1 µM | 34 | 16.7 | 32.3
RPMI 5 mM glucose + 10% FBS, 0.000781 µM | 112 | 92.2 | 95.6
RPMI 5 mM glucose + 10% FBS, 0.00234 µM | 112 | 89.2 | 124
RPMI 5 mM glucose + 10% FBS, 0.00702 µM | 116 | 79.6 | 101
RPMI 5 mM glucose + 10% FBS, 0.0211 µM | 117 | 62.2 | 114
RPMI 5 mM glucose + 10% FBS, 0.0632 µM | 119 | 58.9 | 103
RPMI 5 mM glucose + 10% FBS, 0.19 µM | 116 | 55.4 | 104
RPMI 5 mM glucose + 10% FBS, 0.569 µM | 112 | 56 | 95.1
RPMI 5 mM glucose + 10% FBS, 1.71 µM | 114 | 51.7 | 107
RPMI 5 mM glucose + 10% FBS, 5.12 µM | 106 | 46.7 | 96.2
RPMI 5 mM glucose + 10% FBS, 15.4 µM | 82.5 | 31.2 | 102
RPMI 5 mM glucose + 10% FBS, 46.1 µM | 19.7 | 5.48 | 64.8
RPMI 5 mM glucose + 10% dialyzed FBS, 0.000781 µM | 106 | 71.3 | 102
RPMI 5 mM glucose + 10% dialyzed FBS, 0.00234 µM | 118 | 71.6 | 99.2
RPMI 5 mM glucose + 10% dialyzed FBS, 0.00702 µM | 120 | 57.2 | 110
RPMI 5 mM glucose + 10% dialyzed FBS, 0.0211 µM | 121 | 42.3 | 107
RPMI 5 mM glucose + 10% dialyzed FBS, 0.0632 µM | 123 | 47.9 | 111
RPMI 5 mM glucose + 10% dialyzed FBS, 0.19 µM | 124 | 43.7 | 98.2
RPMI 5 mM glucose + 10% dialyzed FBS, 0.569 µM | 113 | 41.1 | 109
RPMI 5 mM glucose + 10% dialyzed FBS, 1.71 µM | 113 | 46.4 | 98
RPMI 5 mM glucose + 10% dialyzed FBS, 5.12 µM | 101 | 40.1 | 95.5
RPMI 5 mM glucose + 10% dialyzed FBS, 15.4 µM | 60.5 | 26.9 | 71.7
RPMI 5 mM glucose + 10% dialyzed FBS, 46.1 µM | 28.9 | 12.6 | 47.1

AUC of viability dose-response curve
Settings | HPLM + 10% dialyzed FBS | RPMI 5 mM glucose + 10% FBS | RPMI 5 mM glucose + 10% dialyzed FBS
[3] | 433 | 457 | 442
[4] | 436 | 440 | 427
